# Like-named read-outs stand apart in the source and are kept apart here. Positions of bridges follow the written chain, without caps; N, C: chain ends. Non-standard residues stand in square brackets, D forms with d. Residues, ends and D or L forms follow the SMILES beside them. *: point of attachment. Palmitoyl = CCCCCCCCCCCCCCCC(=O)*; X3 = CC[C@H](C)CCCCC(=O)*; Dab = NCC[C@H](N)C(=O)O
# How the values were obtained:
# [1] = test system: A. baumannii; test: Antibiogram of ESKAPE pathogens; assay type: cell-based; conditions: column assigned by order in flattened table
# From the text: (§1) Supplementary Table 1. Antibiogram of ESKAPE pathogens used in this study.
# (§2) Bacteria susceptible to all (blue color) or intermediate/resistant to at least one (red color) of antibiotics per class following the EUCAST breakpoints. Black color is shown if the susceptibility to agents in that class is not assessed. Values are minimal inhibition concentrations (MIC) in µg/ml or for Chloramphenicol in diameter (mm). […]
# [2] = test system: E. coli; test: Antibiogram of ESKAPE pathogens; assay type: cell-based; conditions: column assigned by order in flattened table; for MIC: Escherichia coli
# From the text: as §1, §2
# [3] = test system: K. pneumoniae; conditions: one K. pneumoniae strain, which one not assignable
# From the text: as §1, §2
# [4] = test system: ESKAPE pathogens; test: organism not typed; conditions: one strain of A. baumannii, P. aeruginosa or E. coli, not assignable
# From the text: as §1, §2
# [5] = test system: S. Typhimurium; assay type: cell-based; conditions: for inhibition of S. Typhimurium growth (in words): radial diffusion assay; for diameter of inhibition zone: 1 µg peptide/well, 2.5 mm = empty well
# Experimental: (§3) Antimicrobial activity was analyzed by radial diffusion assay. Log-phase bacteria were cultivated for up to 18 h in TSB (TSB, Becton Dickinson, USA), washed and diluted to 4 × 10^6 CFU in 10 ml agar. Bacteria were incubated in 10 ml of 10 mM sodium phosphate, pH 7.4, containing 0.3 mg/ml of TSB powder and 1% (w/v) low EEO-agarose (AppliChem). 1 µg of each lipopeptide was pipetted into punched wells in a final volume of 4 µl and diffused into the gel for 3 h at 37 °C. After that, a nutrient-rich gel with 6% TSB (w/v) and 1% agarose in 10 mM sodium phosphate buffer was poured on top of the first gel and incubated for up to 24 h at 37 °C. Then the diameter of inhibition zones was measured.
# [6] = test system: A. baumannii DSM30007 4-MRGN
# Experimental: Bactericidal activity was assessed by broth microdilution assay. Log-phase bacteria were collected by centrifugation (2500 rpm, 10 min, 4 °C), washed twice with 10 mM sodium phosphate buffer containing 1% (w/v) TSB and the optical density at 600 nm was adjusted to 0.1. Approximately 5 × 10^5 CFU/ml bacteria were incubated with serial peptide concentrations (1.17–150 µM) in a final volume of 100 µl in 10 mM sodium phosphate buffer containing 1% (w/v) TSB for 2 h at 37 °C. After incubation, 100 µl of 6% TSB (w/v) were added and absorbance was measured at 600 nm (Tecan, Switzerland) and monitored for 18 h. Afterward, 100 µl per well were plated on LB agar to determine the numbers of viable bacteria microbiologically. Bactericidal activity is expressed as the LC99.9, the lowest concentration that killed ≥99.9 % of bacteria.
# [7] = test system: multidrug resistant bacteria belonging to the ESKAPE pathogen panel; assay type: cell-based; conditions: broth microdilution, ESKAPE panel
# Experimental: Bactericidal activity was assessed by broth microdilution assay. […] After incubation, 100 µl of 6% TSB (w/v) were added and absorbance was measured at 600 nm (Tecan, Switzerland) and monitored for 18 h. Afterward, 100 µl per well were plated on LB agar to determine the numbers of viable bacteria microbiologically. Bactericidal activity is expressed as the LC99.9, the lowest concentration that killed ≥99.9 % of bacteria.
# [8] = test system: several pathogenic bacteria; test: Radial diffusion assay, all tested strains; assay type: cell-based
# Experimental: as §3
# [9] = test system: C. rodentium; assay type: cell-based; conditions: 1 µg peptide/well, 2.5 mm = empty well
# Experimental: as §3
# [10] = test system: P. aeruginosa; assay type: cell-based; conditions: 1 µg peptide/well, 2.5 mm = empty well
# Experimental: as §3
# [11] = test system: S. aureus; assay type: cell-based; conditions: 1 µg peptide/well, 2.5 mm = empty well
# Experimental: as §3
molecule,measurement,setting,value
CC(C)(O/N=C(\C(=O)N[C@@H]1C(=O)N2C(C(=O)[O-])=C(C[n+]3ccccc3)CS[C@H]12)c1csc(N)n1)C(=O)O [Ceftazidim],MIC (antibiogram),[1]; strain DSM30007,≥ 64 µg/mL
same,MIC (antibiogram),[2]; strain DSM682,≥ 64 µg/mL
same,MIC (antibiogram),[2]; strain DSM8695,≤ 1 µg/mL
CC[C@H](C)CCCCC(=O)N[C@@H](CCN)C(=O)N[C@H](C(=O)N[C@@H](CCN)C(=O)N[C@H]1CCNC(=O)[C@H]([C@@H](C)O)NC(=O)[C@H](CCN)NC(=O)[C@H](CCN)NC(=O)[C@H](CC(C)C)NC(=O)[C@@H](CC(C)C)NC(=O)[C@H](CCN)NC1=O)[C@@H](C)O [Colistin] (X3-[Dab]T[Dab][Dab][Dab][dL]L[Dab][Dab]T; lactam 4-C (inferred); N-terminus assumed),MIC (antibiogram),[3],0.25 µg/mL
same,MIC (antibiogram),[4],1 µg/mL
CCCCCCCCCCCCCCCC(=O)N[C@@H](CCCNC(=N)N)C(=O)NCC(=O)N[C@@H](CCCCN)C(=O)N[C@@H](C)C(=O)N[C@@H](CCCCN)C(=O)N[C@@H](CS)C(=O)N[C@@H](CS)C(=O)N[C@@H](CCCCN)C(=O)O [Pam-2] (Palmitoyl-RGKAKCCK-OH; C-terminus assumed),inhibition of S. Typhimurium growth (in words),[5],consistently inhibited
same,growth inhibition of colistin- and tigecycline-resistant isolate (in words),[6],inhibited the growth
same,bactericidal activity (in words),[7],highly effective
same,antimicrobial activity (in words),[8],potent inhibition
CN(C)c1cc(NC(=O)CNC(C)(C)C)c(O)c2c1C[C@H]1C[C@H]3[C@H](N(C)C)C(O)=C(C(N)=O)C(=O)[C@@]3(O)C(O)=C1C2=O [Tigecycline],MIC,"[1]; Acinetobacter baumannii, strain ECII",4 µg/mL
same,MIC,[2]; strain DSM682,≤ 0.5 µg/mL
same,MIC,[2]; strain DSM8695,≤ 0.5 µg/mL
"RGKAKCCK [Octapeptide, the C-terminal eight amino acids of human β-defensin 1]",diameter of inhibition zone,[9]; experiment 1 of 3,5.5 mm
same,diameter of inhibition zone,[9]; experiment 2 of 3,5 mm
same,diameter of inhibition zone,[9]; experiment 3 of 3,5.5 mm
same,diameter of inhibition zone,[10]; experiment 1 of 3,3.5 mm
same,diameter of inhibition zone,[10]; experiment 2 of 3,4 mm
same,diameter of inhibition zone,[10]; experiment 3 of 3,4 mm
same,diameter of inhibition zone,[5]; experiment 1 of 3,2.5 mm
same,diameter of inhibition zone,[5]; experiment 2 of 3,2.5 mm
same,diameter of inhibition zone,[5]; experiment 3 of 3,2.5 mm
same,inhibition of S. Typhimurium growth (in words),[5],failed to inhibit
same,diameter of inhibition zone,[11]; experiment 1 of 3,6 mm
same,diameter of inhibition zone,[11]; experiment 2 of 3,7 mm
same,diameter of inhibition zone,[11]; experiment 3 of 3,6.5 mm

# From article PMC7794397, “Curbing gastrointestinal infections by defensin fragment modifications without harming commensal microbiota” (Communications Biology, 2021)
